Experimental data as given in patent US20230312550A1, “N-(2-(4-CYANOTHIAZOLIDIN-3-YL)-2-OXOETHYL)-QUINOLINE-4-CARBOXAMIDES” (AstraZeneca AB, priority 2020, published 2023).
Values after ≈ are worked out from the molar mass of the structure shown.

What was measured:
Kinetic solubility = conditions: kinetic from dmso stock, Solubility, kinetic solubility; n = 1 or average of n = 2-3
Procedure: Kinetic solubility was measured as described in Comput Aided Mol Des 2015, 29, 795.

[1] = Metabolic stability in human liver microsomes (HLM); conditions: human, HLM CLint, n = 1 or average of n = 2-3
Procedure: Metabolic stability in HLM was measured as described in J Comput Aided Mol Des 2015, 29, 795.

[2] = target: Prolyl endopeptidase, Prolyl Oligopeptidase (hPREP) (Homo sapiens (Human), UniProt P48147); assay: hPrep inhibition assay; type: biochemical; conditions: hPREP 0.6 nM, Z-Gly-Pro-amino-methylcoumarin 50 μM; read-out: PREP IC50
Procedure: Compounds were tested in a biochemical inhibition assay using Prolyl endopeptidase, Prolyl Oligopeptidase (hPREP) enzyme at 0.6 nM FAC (R&D Systems, 4308-SE) and the substrate Z-Gly-Pro-amino-methylcoumarin (Bachem, I-1145) at 50 μM FAC. 384 Low volume black plates (Greiner #784076) were used. […] Plates were incubated for 15 min at rt in dark. 4 μL, 100 μM substrate solution (25 mM Tris HCl, 250 mM NaCl, 0.01% Triton X-100, 5 mM Glutathione, pH 7.5) was added to each well. Plates were centrifuged at 1000 rpm and incubated for 20 min at rt in dark. The plates were read on a PHERAstar® reader with excitation 340 nm and emission 460 nm. Data were analyzed in Genedata Screener®. IC50 values were determined by plotting % inhibition versus log compound concentration and using a one site dose response model.

[3] = Metabolic stability in rat hepatocytes (rHep); conditions: n = 1 or geometric mean of n = 2-3
hFAP (M39-A757) = hFAP (M39-A757) (Homo sapiens (Human), UniProt Q12884); assay: hFAP binding assay (surface plasmon resonance); conditions: SPR, 20° C.; for hFAP Binding assay k(off) / hFAP Binding assay k(on): single cycle kinetics; for Kd: n = 1 or geometric mean n = 2-4
Procedure: Compounds were tested in a direct binding assay using 8K surface plasmon resonance biosensor (GE Healthcare) at 20° C. Immobilization of hFAP (M39-A757) on a CMD200M sensor chip (Xantec) was performed using standard amine coupling procedure in immobilization buffer (10 mM HEPES, 150 mM NaCl, 0.05% Tween20, pH 7.4). The surface was washed with 10 mM NaOH, 1M NaCl before being activated with EDC/NHS (GE Healthcare), followed by immobilization of hFAP (in 10 mM Acetate pH 5.0). Finally, the surface was deactivated by ethanolamine. Immobilization levels of hFAP were around 4000-6000 RU. The reference spot was treated as described, omitting the injection of hFAP. Compound concentration series were injected over the immobilized protein in increasing concentrations (2-500 nM) using single cycle kinetics in running buffer (20 mM TRIS, 150 mM NaCl, 0.05% Tween20, 1% DMSO, pH 7.4). Interaction models were fitted globally to the experimental traces, enabling determination of kon, koff and Kd.

[4] = target: human Fibroblast activation protein alpha (hFAP) (Homo sapiens (Human), UniProt Q12884); assay: hFAP inhibition assay (tight binders); type: biochemical; conditions: Ala-Pro-AMC 20 μM, n = 1 or geometric mean n = 2-6; note: hFAP 2.4 pM
Procedure: The plates were read on a PHERAstar® reader with excitation 340 nm and emission 460 nm. Data were analyzed in Genedata Screener®. IC50 values were determined by plotting % inhibition versus log compound concentration and using a one site dose response model.

Prolyl endopeptidase, Prolyl Oligopeptidase (hPREP), sequence (P48147 whole entry): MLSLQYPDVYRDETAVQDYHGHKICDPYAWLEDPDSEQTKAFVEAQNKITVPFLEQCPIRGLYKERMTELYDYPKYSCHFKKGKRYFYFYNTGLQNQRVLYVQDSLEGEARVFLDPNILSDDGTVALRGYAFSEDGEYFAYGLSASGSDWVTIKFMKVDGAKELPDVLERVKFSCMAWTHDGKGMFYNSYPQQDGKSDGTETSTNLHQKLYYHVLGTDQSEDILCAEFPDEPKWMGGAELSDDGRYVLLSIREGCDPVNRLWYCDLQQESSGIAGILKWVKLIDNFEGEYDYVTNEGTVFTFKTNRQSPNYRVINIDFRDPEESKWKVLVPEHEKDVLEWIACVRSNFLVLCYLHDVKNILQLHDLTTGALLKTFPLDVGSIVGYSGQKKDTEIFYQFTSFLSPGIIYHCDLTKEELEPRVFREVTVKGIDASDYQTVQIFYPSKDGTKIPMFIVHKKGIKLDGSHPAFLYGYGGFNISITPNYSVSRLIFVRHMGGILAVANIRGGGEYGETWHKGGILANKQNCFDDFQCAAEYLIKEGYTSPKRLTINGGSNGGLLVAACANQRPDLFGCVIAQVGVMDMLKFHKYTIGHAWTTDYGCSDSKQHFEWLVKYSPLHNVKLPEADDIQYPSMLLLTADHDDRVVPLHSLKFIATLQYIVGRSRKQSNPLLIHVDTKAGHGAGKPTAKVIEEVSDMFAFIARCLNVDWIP
human Fibroblast activation protein alpha (hFAP), sequence (Q12884 38-760): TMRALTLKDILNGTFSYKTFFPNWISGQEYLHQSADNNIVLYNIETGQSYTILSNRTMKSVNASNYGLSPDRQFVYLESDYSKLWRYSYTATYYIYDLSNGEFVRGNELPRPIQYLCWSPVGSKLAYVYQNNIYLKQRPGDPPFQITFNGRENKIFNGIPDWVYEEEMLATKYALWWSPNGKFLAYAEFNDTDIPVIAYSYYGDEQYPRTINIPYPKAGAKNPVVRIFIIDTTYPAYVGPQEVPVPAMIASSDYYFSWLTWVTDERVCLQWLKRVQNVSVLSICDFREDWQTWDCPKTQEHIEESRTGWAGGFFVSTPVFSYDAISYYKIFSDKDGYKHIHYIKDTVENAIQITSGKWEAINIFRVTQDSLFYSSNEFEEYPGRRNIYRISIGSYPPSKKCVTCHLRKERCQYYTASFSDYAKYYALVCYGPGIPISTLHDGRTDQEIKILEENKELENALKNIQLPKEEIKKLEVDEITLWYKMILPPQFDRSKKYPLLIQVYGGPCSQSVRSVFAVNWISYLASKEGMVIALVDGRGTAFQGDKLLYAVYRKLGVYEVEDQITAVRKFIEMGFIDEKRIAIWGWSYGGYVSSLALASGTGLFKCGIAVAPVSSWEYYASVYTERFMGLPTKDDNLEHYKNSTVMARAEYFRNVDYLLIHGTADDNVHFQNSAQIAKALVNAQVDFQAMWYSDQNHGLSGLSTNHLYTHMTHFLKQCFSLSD
hFAP (M39-A757), sequence (Q12884 39-757): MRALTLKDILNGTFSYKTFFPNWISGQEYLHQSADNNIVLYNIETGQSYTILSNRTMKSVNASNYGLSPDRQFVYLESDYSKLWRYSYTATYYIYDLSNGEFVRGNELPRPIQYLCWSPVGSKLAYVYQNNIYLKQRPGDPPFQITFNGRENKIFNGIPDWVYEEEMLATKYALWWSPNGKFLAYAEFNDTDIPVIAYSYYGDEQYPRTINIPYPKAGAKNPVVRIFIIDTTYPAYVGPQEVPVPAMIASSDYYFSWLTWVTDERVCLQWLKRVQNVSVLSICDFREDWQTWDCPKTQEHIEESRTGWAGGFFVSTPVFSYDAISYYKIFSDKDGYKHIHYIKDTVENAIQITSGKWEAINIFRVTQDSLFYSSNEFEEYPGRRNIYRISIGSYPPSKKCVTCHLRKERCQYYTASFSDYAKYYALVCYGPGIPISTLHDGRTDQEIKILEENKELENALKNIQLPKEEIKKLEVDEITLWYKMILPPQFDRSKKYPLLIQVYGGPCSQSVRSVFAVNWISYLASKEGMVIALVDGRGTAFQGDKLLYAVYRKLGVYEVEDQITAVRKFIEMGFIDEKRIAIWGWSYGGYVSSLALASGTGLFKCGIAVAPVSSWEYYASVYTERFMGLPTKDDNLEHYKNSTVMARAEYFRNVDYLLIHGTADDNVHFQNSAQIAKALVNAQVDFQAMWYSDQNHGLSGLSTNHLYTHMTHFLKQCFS

Row | SMILES | solubility (Kinetic solubility) | microsomal CLint [1] | IC50 [2] | rHep CLint [3] | hFAP Binding assay k(off) (hFAP (M39-A757)) | hFAP Binding assay k(on) (hFAP (M39-A757)) | Kd (hFAP (M39-A757)) | IC50 [4] | microsomal CLint ([1]; liver microsomes)
1 | COC1CN(c2ccc3nccc(C(=O)NCC(=O)N4CSC[C@H]4C#N)c3c2)C1 [Example 66, (R)—N-(2-(4-Cyanothiazolidin-3-yl)-2-oxoethyl)-6-(3-methoxyazetidin-1-yl)quinoline-4-carboxamide] | 210 µM (≈ 86.4 µg/mL) | < 3 µL/min/mg | 490 nM | <1 μL/min/1E6 | 0.00022 s⁻¹ | 26000000 M⁻¹ s⁻¹ | 0.035 nM | 0.077 nM | 
2 | N#C[C@@H]1CSCN1C(=O)CNC(=O)c1ccnc2ccc(N3CCO[C@@H](C(F)(F)F)C3)cc12 [Example 73, N-(2-((R)-4-Cyanothiazolidin-3-yl)-2-oxoethyl)-6-((R)-2-(trifluoromethyl)-morpholino)quinoline-4-carboxamide] | 310 µM (≈ 149 µg/mL) | 32 µL/min/mg | 1800 nM | 11 μL/min/1E6 | 0.00016 s⁻¹ | 2400000 M⁻¹ s⁻¹ | 0.066 nM | 0.13 nM | 
3 | COCC[C@@H]1COCCN1c1ccc2nccc(C(=O)NCC(=O)N3CSC[C@H]3C#N)c2c1 [Example 95, N-(2-((R)-4-Cyanothiazolidin-3-yl)-2-oxoethyl)-6-((R)-3-(2-methoxyethyl)-morpholino)quinoline-4-carboxamide] | 960 µM (≈ 451 µg/mL) | 63 µL/min/mg | 740 nM | 13 μL/min/1E6 | 0.000056 s⁻¹ | 2900000 M⁻¹ s⁻¹ | 0.024 nM | 0.16 nM | 
4 | N#C[C@@H]1CSCN1C(=O)CNC(=O)c1ccnc2ccc(-n3cc4c(n3)CCCC4)cc12 [Example 115, (R)—N-(2-(4-Cyanothiazolidin-3-yl)-2-oxoethyl)-6-(4,5,6,7-tetrahydro-2H-indazol-2-yl)quinoline-4-carboxamide] | 0.59 µM (≈ 0.263 µg/mL) | 120 µL/min/mg | 130 nM | 20 μL/min/1E6 |  |  | 0.11 nM | 0.04 nM | 
5 | Cc1cc(C(F)(F)F)nn1-c1ccc2nccc(C(=O)NCC(=O)N3CSC[C@H]3C#N)c2c1 [Example 116, (R)—N-(2-(4-Cyanothiazolidin-3-yl)-2-oxoethyl)-6-(5-methyl-3-(trifluoromethyl)-1H-pyrazol-1-yl)quinoline-4-carboxamide] | 490 µM (≈ 232 µg/mL) | 98 µL/min/mg | 230 nM | 15 μL/min/1E6 | 0.0012 s⁻¹ | 7900000 M⁻¹ s⁻¹ | 0.15 nM | 0.16 nM | 
6 | N#C[C@@H]1CSCN1C(=O)CNC(=O)c1ccnc2ccc(-n3ccc(C(F)(F)F)n3)cc12 [Example 118, (R)—N-(2-(4-Cyanothiazolidin-3-yl)-2-oxoethyl)-6-(3-(trifluoromethyl)-1H-pyrazol-1-yl)quinoline-4-carboxamide] | 20 µM (≈ 9.21 µg/mL) | 41 µL/min/mg | 360 nM | 21 μL/min/1E6 |  |  | 0.17 nM | 0.1 nM | 
7 | N#C[C@@H]1CSCN1C(=O)CNC(=O)c1ccnc2ccc(-n3ccc4c(F)cc(F)cc43)cc12 [Example 119, (R)—N-(2-(4-Cyanothiazolidin-3-yl)-2-oxoethyl)-6-(4,6-difluoro-1H-indol-1-yl)quinoline-4-carboxamide] | 1 µM (≈ 0.477 µg/mL) | 68 µL/min/mg | 76 nM | 27 μL/min/1E6 | 0.00031 s⁻¹ | 610000 M⁻¹ s⁻¹ | 0.39 nM | 0.16 nM | 
8 | N#C[C@@H]1CSCN1C(=O)CNC(=O)c1ccnc2ccc(-n3ccc4cc(F)ccc43)cc12 [Example 120, (R)—N-(2-(4-Cyanothiazolidin-3-yl)-2-oxoethyl)-6-(5-fluoro-1H-indol-1-yl)quinoline-4-carboxamide] | 0.92 µM (≈ 0.423 µg/mL) | 100 µL/min/mg | 25 nM | 27 μL/min/1E6 |  |  | 0.13 nM | 0.15 nM | 
9 | Cc1ccn(-c2ccc3nccc(C(=O)NCC(=O)N4CSC[C@H]4C#N)c3c2)c1 [Example 121, (R)—N-(2-(4-Cyanothiazolidin-3-yl)-2-oxoethyl)-6-(3-methyl-1H-pyrrol-1-yl)quinoline-4-carboxamide] | 44 µM (≈ 17.8 µg/mL) | 43 µL/min/mg | 88 nM | 13 μL/min/1E6 | 0.000016 s⁻¹ | 1100000 M⁻¹ s⁻¹ | 0.012 nM | 0.15 nM | 

Second part, the molecule after the results:

Row | solubility (Kinetic solubility) | microsomal CLint [1] | IC50 [2] | rHep CLint [3] | hFAP Binding assay k(off) (hFAP (M39-A757)) | hFAP Binding assay k(on) (hFAP (M39-A757)) | Kd (hFAP (M39-A757)) | IC50 [4] | microsomal CLint ([1]; liver microsomes) | SMILES
10 | > 1000 µM | 71 µL/min/mg | 880 nM | 15 μL/min/1E6 | 0.00022 s⁻¹ | 4000000 M⁻¹ s⁻¹ | 0.067 nM | 0.17 nM |  | COC[C@H]1[C@H](C)OCCN1c1ccc2nccc(C(=O)NCC(=O)N3CSC[C@H]3C#N)c2c1 [Example 96, N-(2-((R)-4-Cyanothiazolidin-3-yl)-2-oxoethyl)-6-((2S,3S)-3-(methoxymethyl)-2-methylmorpholino)quinoline-4-carboxamide]
11 | 4.5 µM (≈ 2.01 µg/mL) | 170 µL/min/mg | 230 nM | 36 μL/min/1E6 |  |  | 0.062 nM | 0.072 nM |  | N#C[C@@H]1CSCN1C(=O)CNC(=O)c1ccnc2ccc(-n3ncc4c3CCCC4)cc12 [Example 114, (R)—N-(2-(4-Cyanothiazolidin-3-yl)-2-oxoethyl)-6-(4,5,6,7-tetrahydro-1H-indazol-1-yl)quinoline-4-carboxamide]
12 | 25 µM (≈ 11.5 µg/mL) | 170 µL/min/mg | 170 nM | 29 μL/min/1E6 |  |  | 0.06 nM | 0.061 nM |  | CC1(C)CCc2cn(-c3ccc4nccc(C(=O)NCC(=O)N5CSC[C@H]5C#N)c4c3)nc21 [Example 117, (R)—N-(2-(4-Cyanothiazolidin-3-yl)-2-oxoethyl)-6-(6,6-dimethyl-5,6-dihydrocyclopenta[c]pyrazol-2(4H)-yl)quinoline-4-carboxamide]
13 | 16 µM (≈ 7.67 µg/mL) |  | 540 nM | 11 μL/min/1E6 |  |  | 0.18 nM | 0.19 nM | 54 µL/min/mg | N#C[C@@H]1CSCN1C(=O)CNC(=O)c1ccnc2ccc(N3CC(COC(F)(F)F)C3)cc12 [Example 130, (R)—N-(2-(4-Cyanothiazolidin-3-yl)-2-oxoethyl)-6-(3-((trifluoromethoxy)-methyl)azetidin-1-yl)quinoline-4-carboxamide]
14 | 140 µM (≈ 66.9 µg/mL) | 97 µL/min/mg | 360 nM | 16 μL/min/1E6 | 0.00014 s⁻¹ | 1800000 M⁻¹ s⁻¹ | 0.033 nM | 0.12 nM |  | CC1(CC(F)(F)F)CN(c2ccc3nccc(C(=O)NCC(=O)N4CSC[C@H]4C#N)c3c2)C1 [Example 131, (R)—N-(2-(4-Cyanothiazolidin-3-yl)-2-oxoethyl)-6-(3-methyl-3-(2,2,2-trifluoroethyl)azetidin-1-yl)quinoline-4-carboxamide]
